Measurements: US6875758B2, “Method of treating hyperlipidemic and hyperglycemic conditions in mammals using pregnadienols and pregnadienones” (Council of Scientific & Industrial Research, priority 1999, dated 2005)

Experiments:
Rhesus monkeys = experiment: Hypolipidemic activity in Rhesus monkeys; type: in vivo; conditions: for S. Triglycerides % Fall: day 60 vs day 0; for HDL-Cholesterol % Change / LDL-Cholesterol % Fall / S. Cholesterol % Fall: day 90 vs day 0
Description: In Rhesus monkeys: 3β-Hydroxypregna-5,16-dien-20one (2) was administered orally daily for 90 days in doses of 62.5, 125 or 650 mg/kg to different group of animals. Significant decrease in serum cholesterol was observed (45-52%).

normal rats = experiment: Hypolipidemic activity in normal rats; type: in vivo; conditions: 50 mg/kg
Description: In normal rats, 3β-hydroxypregna-5,16-dien-20one (2), at 50 mg/kg produced a significant lowering of serum cholesterol and triglycerides as describe in Table-3 below.

[1] = tested on: endometrial proliferation; experiment: Clauberg assay, endometrial proliferation on McPhail scale; type: in vivo; conditions: 200 mg/kg dose
Description: The progestational activity was also tested in vivo by Clauberg assay method. The degree of endometrial proliferation was estimated on the McPhail scale where 3′ or 4′ was considered as a full progestational effect.

[2] = tested on: cholesterol fed hyperlipidemic rats; experiment: Lipid peroxidation in cholesterol fed hyperlipidemic rats; type: in vivo
Human serum LDL = experiment: Cu2+ induced oxidation of low density lipoprotein (TBA reactive lipid peroxides); type: biochemical; conditions: for MDA (Exp.): 16 hr at 37° C., pH 7.4
Description: Human serum LDL was oxidized with Cu^′2 in different concentrations of test compound in 0.05 mole PBS, pH 7.4 for 16 hr at 37° C. Thiobarbituric acid reactive lipid peroxides are measured by standard procedure. […] Cu^′2 induced oxidation in LDL lipids are mainly due to the free OH radical during incubation.

glucose loaded rats = experiment: Hypoglycemic activity in glucose loaded rats; type: in vivo, albino rats (Charles Foster strain); conditions: for Blood Glucose Level: 100 mg/kg p.o. + glucose 2.0 g/kg; for % inhibition compared to control (blood glucose): 100 mg/kg
Description: The experiments were carried out with albino rats (Charles Foster strain) of either sex weighing 150-160 g. They were fed on laboratory diet prepared by M/s Lipton India Ltd. and maintained under 12 hr. light/dark cycle at 25±2° C.
The animals were divided into eight groups, each of six rats; group I was given 1% gum acacia (0.1 ml/100 g body weight) intragastrically (p.o.) and the group II were given 3β-hydroxypregna-5,16-dien-20-one (2) in 1% gum acacia. Animals of group III were given the standard antidiabetic drug, tolbutamide in the similar fashion. 2.0 g/kg glucose was given p.o. to all the rats along with the vehicle/Compound/Standard antidiabetic drug. Blood samples were taken from retroorbital plexus at periodic intervals. Glucose levels in the blood samples were measured by glucose oxidase method [Bergmeyer and Benut, 1963 cited in “Methods of Enzymatic Analysis” ed. H. Bergmeyer, Verlag Chemie, GmBH, Weinheim, Beroster, pp123, Academic press, New York].

hyperlipidemic rabbits = experiment: Hypolipidemic effect in hyperlipidemic rabbits (120 days experiment); type: in vivo; parameters: Serum Triglycerides: unit not given here; conditions: 100 mg/kg
[3] = 62.5, 125 or 650 mg/kg orally daily for 90 days

CC(=O)C1=CC[C@H]2[C@@H]3CC=C4C[C@@H](O)CC[C@]4(C)[C@H]3CC[C@]12C [Compound 2, 3β-Hydroxypregna-5,16-dien-20-one]
S. Cholesterol (Rhesus monkeys; 62.5 mg/kg orally daily, day 0): 156.8 ± 23.0 mg/dL
S. Triglycerides (Rhesus monkeys; 62.5 mg/kg orally daily, day 0): 77.5 ± 7.0 mg/dL
S. Triglycerides (Rhesus monkeys; 62.5 mg/kg orally daily, day 60): 66.3 ± 6.9 mg/dL
S. Cholesterol (Rhesus monkeys; 62.5 mg/kg orally daily, day 90): 83.3 ± 8.5 mg/dL
HDL-Cholesterol (Rhesus monkeys; 62.5 mg/kg, day 0): 50.0 ± 4.5 mg/dL
LDL-Cholesterol (Rhesus monkeys; 62.5 mg/kg, day 0): 91.8 ± 27.0 mg/dL
S. Triglycerides % Fall (Rhesus monkeys; 62.5 mg/kg): 14%
HDL-Cholesterol (Rhesus monkeys; 62.5 mg/kg, day 90): 45.0 ± 2.5 mg/dL
LDL-Cholesterol (Rhesus monkeys; 62.5 mg/kg, day 90): 24.3 ± 8.0 mg/dL
HDL-Cholesterol % Change (Rhesus monkeys; 62.5 mg/kg): −8%
LDL-Cholesterol % Fall (Rhesus monkeys; 62.5 mg/kg): 75%
S. Cholesterol % Fall (Rhesus monkeys; 62.5 mg/kg): 47%
S. Cholesterol (Rhesus monkeys; 125 mg/kg orally daily, day 0): 133.3 ± 8.5 mg/dL
S. Triglycerides (Rhesus monkeys; 125 mg/kg orally daily, day 0): 69.8 ± 9.9 mg/dL
S. Triglycerides (Rhesus monkeys; 125 mg/kg orally daily, day 60): 60.0 ± 2.9 mg/dL
S. Cholesterol (Rhesus monkeys; 125 mg/kg orally daily, day 90): 65.8 ± 2.2 mg/dL
HDL-Cholesterol (Rhesus monkeys; 125 mg/kg, day 0): 46.3 ± 2.0 mg/dL
LDL-Cholesterol (Rhesus monkeys; 125 mg/kg, day 0): 63.5 ± 7.4 mg/dL
S. Triglycerides % Fall (Rhesus monkeys; 125 mg/kg): 13%
HDL-Cholesterol (Rhesus monkeys; 125 mg/kg, day 90): 50.8 ± 0.5 mg/dL
LDL-Cholesterol (Rhesus monkeys; 125 mg/kg, day 90): 4.6 ± 0.9 mg/dL
HDL-Cholesterol % Change (Rhesus monkeys; 125 mg/kg): +10%
LDL-Cholesterol % Fall (Rhesus monkeys; 125 mg/kg): 90%
S. Cholesterol % Fall (Rhesus monkeys; 125 mg/kg): 50%
S. Cholesterol (Rhesus monkeys; 650 mg/kg orally daily, day 0): 132.8 ± 6.4 mg/dL
S. Triglycerides (Rhesus monkeys; 650 mg/kg orally daily, day 0): 90.5 ± 3.9 mg/dL
S. Triglycerides (Rhesus monkeys; 650 mg/kg orally daily, day 60): 58.5 ± 3.8 mg/dL
S. Cholesterol (Rhesus monkeys; 650 mg/kg orally daily, day 90): 63.3 ± 2.3 mg/dL
HDL-Cholesterol (Rhesus monkeys; 650 mg/kg, day 0): 39.3 ± 1.3 mg/dL
LDL-Cholesterol (Rhesus monkeys; 650 mg/kg, day 0): 72.7 ± 8.4 mg/dL
S. Triglycerides % Fall (Rhesus monkeys; 650 mg/kg): 36%
HDL-Cholesterol (Rhesus monkeys; 650 mg/kg, day 90): 41.8 ± 0.9 mg/dL
LDL-Cholesterol (Rhesus monkeys; 650 mg/kg, day 90): 13.1 ± 0.7 mg/dL
HDL-Cholesterol % Change (Rhesus monkeys; 650 mg/kg): +6%
LDL-Cholesterol % Fall (Rhesus monkeys; 650 mg/kg): 82%
S. Cholesterol % Fall (Rhesus monkeys; 650 mg/kg): 53%
changes in HDL-cholesterol (Rhesus monkeys; [3]): not significant
decrease in low density lipoprotein (Rhesus monkeys; [3]): 75-90%
decrease in serum cholesterol (Rhesus monkeys; [3]): 45-52%
Serum Cholesterol (normal rats; 0 Days): 71.5 ± 1.8 mg %
Serum Cholesterol (normal rats; 30 Days): 43.2 ± 2.9 mg %
Serum Cholesterol % Fall (normal rats; 30 Days): 40%
Serum Triglycerides (normal rats; 30 Days): 42.0 ± 2.8 mg %
Serum Triglycerides % Fall compared to control (normal rats; 30 Days): 35%
progestational activity [1]: did not exhibit any activity
HDL lipid peroxides ([2]; cholesterol + drug 25 mg/kg): 125 ± 10 n mol MDA/dl
HDL lipid peroxides % reversal as compared with cholesterol fed rats ([2]; cholesterol + drug 25 mg/kg): (−9) %
LDL lipid peroxides ([2]; cholesterol + drug 25 mg/kg): 421 ± 20 n mol MDA/dl
LDL lipid peroxides % reversal as compared with cholesterol fed rats ([2]; cholesterol + drug 25 mg/kg): (−30) %
Liver lipid peroxides ([2]; cholesterol + drug 25 mg/kg): 212 ± 16 n mol MDA/g
Liver lipid peroxides % reversal as compared with cholesterol fed rats ([2]; cholesterol + drug 25 mg/kg): (−23) %
Serum lipid peroxides ([2]; cholesterol + drug 25 mg/kg): 931.5 ± 51 n mol MDA/dl
Serum lipid peroxides % reversal as compared with cholesterol fed rats ([2]; cholesterol + drug 25 mg/kg): (−24) %
VLDL lipid peroxides ([2]; cholesterol + drug 25 mg/kg): 310 ± 15 n mol MDA/dl
VLDL lipid peroxides % reversal as compared with cholesterol fed rats ([2]; cholesterol + drug 25 mg/kg): (−18) %
lipid peroxide levels in serum VLDL, LDL and liver (in words) ([2]; cholesterol fed animals, simultaneous treatment): significant reversal
% inhibition of LDL oxidation (Human serum LDL; 2.5 μmol/ml): (26) %
MDA (Exp.) (Human serum LDL; 2.5 μmol/ml): 41.4 ± 1.7 n mol MDA/mg protein
% inhibition of LDL oxidation (Human serum LDL; 5.0 μmol/ml): (49) %
MDA (Exp.) (Human serum LDL; 5.0 μmol/ml): 28.7 ± 4.0 n mol MDA/mg protein
% inhibition of LDL oxidation (Human serum LDL; 10.0 μmol/ml): (74) %
MDA (Exp.) (Human serum LDL; 10.0 μmol/ml): 10.6 ± 0.5 n mol MDA/mg protein
% inhibition of LDL oxidation (Human serum LDL; 20 μmol/ml): (89) %
MDA (Exp.) (Human serum LDL; 20 μmol/ml): 4.0 ± 0.5 n mol MDA/mg protein
generation of LDL lipid peroxide (in words) (Human serum LDL; tested concentrations): inhibit the generation of LDL lipid peroxide in concentration dependent manner
Maximum Blood Glucose Change (glucose loaded rats; 100 mg/kg p.o. + glucose): −18.7%
Blood Glucose Level (glucose loaded rats; 0 min): 42.43 ± 1.64 mg/dL
Blood Glucose Level (glucose loaded rats; 30 min): 76.15 ± 6.07 mg/dL
Blood Glucose Level (glucose loaded rats; 60 min): 56.06 ± 4.65 mg/dL
Blood Glucose Level (glucose loaded rats; 90 min): 55.06 ± 2.61 mg/dL
Blood Glucose Level (glucose loaded rats; 120 min): 49.59 ± 1.66 mg/dL
% inhibition compared to control (blood glucose) (glucose loaded rats; 30 min): (48) %
% inhibition compared to control (blood glucose) (glucose loaded rats; 60 min): (55) %
% inhibition compared to control (blood glucose) (glucose loaded rats; 90 min): (54) %
% inhibition compared to control (blood glucose) (glucose loaded rats; 120 min): (34) %
Serum Cholesterol % Decrease (Compared with HFD) (hyperlipidemic rabbits): 74%
Serum Triglycerides % Decrease (Compared with HFD) (hyperlipidemic rabbits): 61%
Serum Cholesterol (hyperlipidemic rabbits; HFD): 350.0 ± 28.1 mg/dL
Serum Triglycerides (hyperlipidemic rabbits; HFD): 74.2 ± 10.3
